Data as given in the supplement of paper PMC13380429.

Legend:
Conditions in all cases: 72 h
U2OS [1] = experiment: cell viability relative to DMSO; higher = less toxic
HepG2 [2] = experiment: as above
Caco-2 [3] = experiment: as above
Vero E6 [4] = experiment: as above
Calu-3 [5] = experiment: as above
U2OS [6] = experiment: relative viability EC50 (midpoint between 100% and the lowest measured viability); higher = less toxic
HepG2 [7] = experiment: as above
Caco-2 [8] = experiment: as above
Vero E6 [9] = experiment: as above
Calu-3 [10] = experiment: as above
U2OS [11] = experiment: drug sensitivity score (DSS) for viability; higher = more toxic; extreme values may be limits of the assay
HepG2 [12] = experiment: as above
Caco-2 [13] = experiment: as above
Vero E6 [14] = experiment: as above
Calu-3 [15] = experiment: as above

Compound	cell viability (U2OS [1]; 1 nM) [%]	cell viability (U2OS [1]; 10 nM) [%]	cell viability (U2OS [1]; 100 nM) [%]	cell viability (U2OS [1]; 1000 nM) [%]	cell viability (U2OS [1]; 10000 nM) [%]	cell viability (HepG2 [2]; 1 nM) [%]	cell viability (HepG2 [2]; 10 nM) [%]	cell viability (HepG2 [2]; 100 nM) [%]	cell viability (HepG2 [2]; 1000 nM) [%]	cell viability (HepG2 [2]; 10000 nM) [%]	cell viability (Caco-2 [3]; 1 nM) [%]	cell viability (Caco-2 [3]; 10 nM) [%]	cell viability (Caco-2 [3]; 100 nM) [%]	cell viability (Caco-2 [3]; 1000 nM) [%]	cell viability (Caco-2 [3]; 10000 nM) [%]	cell viability (Vero E6 [4]; 1 nM) [%]	cell viability (Vero E6 [4]; 10 nM) [%]	cell viability (Vero E6 [4]; 100 nM) [%]	cell viability (Vero E6 [4]; 1000 nM) [%]	cell viability (Vero E6 [4]; 10000 nM) [%]	cell viability (Calu-3 [5]; 1 nM) [%]	cell viability (Calu-3 [5]; 10 nM) [%]	cell viability (Calu-3 [5]; 100 nM) [%]	cell viability (Calu-3 [5]; 1000 nM) [%]	cell viability (Calu-3 [5]; 10000 nM) [%]	relative viability EC50 (U2OS [6]) [µM]	relative viability EC50 (HepG2 [7]) [µM]	relative viability EC50 (Caco-2 [8]) [µM]	relative viability EC50 (Vero E6 [9]) [µM]	relative viability EC50 (Calu-3 [10]) [µM]	drug sensitivity score (U2OS [11])	drug sensitivity score (HepG2 [12])	drug sensitivity score (Caco-2 [13])	drug sensitivity score (Vero E6 [14])	drug sensitivity score (Calu-3 [15])
C[N@+]1(CC2CC2)CC[C@]23c4c5ccc(O)c4O[C@H]2C(=O)CC[C@@]3(O)[C@H]1C5 [methylnaltrexone]	104	95.2	98.4	97.5	99.6	93.2	97.7	91.9	96.8	92.3	101	95.6	99.8	94.2	90.8	97.3	105	96.9	97.2	94.5	104	95	107	97.1	103	> 10	> 10	> 10	> 10	> 10	0	0	0	0	0
O=C(N[C@H]1CN2CCC1CC2)c1ccc(Cl)cc1	102	97.4	99.9	95.7	101	97.2	92.2	93.7	102	94.3	98.5	97.8	103	98.3	92.6	96.7	94.7	95.4	92.7	92.5	99.6	88.7	99.6	99.8	95.6	> 10	> 10	> 10	> 10	> 10	0	0	0	0	0
O=C1NC(=O)C(c2ccccc2)(c2ccccc2)N1 [phenytoin]	97.7	104	96	101	98.9	108	94.8	99.5	95.8	101	97.9	95.9	88.6	101	99.3	96	103	100	98.4	100	102	96.1	97.8	93.5	84.9	> 10	> 10	> 10	> 10	> 10	0	0	0	0	0.3
CCN1CCC[C@H]1CNC(=O)c1c(OC)ccc(Br)c1OC [remoxipride]	101	103	98	105	95.7	111	92	101	96.5	94.1	99.9	104	88.7	99.1	92.7	96.2	100	94.3	91.4	91.7	96.3	113	99.7	94.3	79.9	> 10	> 10	> 10	> 10	> 10	0	0	0	0	1.3
C=CC1=C(C(=O)O)N2C(=O)[C@@H](NC(=O)/C(=N\O)c3csc(N)n3)[C@H]2SC1 [cefdinir]	94	104	94.8	102	100	110	92.9	101	93.1	97.5	100	98.9	90.3	101	99.2	104	100	99.8	97.7	99.9	101	91.8	92.3	102	101	> 10	> 10	> 10	> 10	> 10	0	0	0	0	0
FCc1ccc(OCCOc2ccc(Cl)cc2Cl)c(Cl)n1	100	96.4	102	94.4	92.7	94.8	97.1	98.9	104	86.3	92.7	92.8	107	90.5	77	95.2	105	96.6	103	103	101	101	101	97.9	92.4	> 10	> 10	> 10	> 10	> 10	0	0.1	1.9	0	0
C[N+]1(C)[C@@H]2C[C@@H](OC(=O)C(O)(c3cccs3)c3cccs3)C[C@H]1[C@@H]1O[C@@H]12 [tiotropium]	93.4	94	95.3	96.8	108	102	93.9	98.8	99.4	104	105	100	101	99.5	104	103	98.6	101	95.9	102	102	98.7	96.4	95.2	108	> 10	> 10	> 10	> 10	> 10	0	0	0	0	0
